In US20250230147A1, “LACTAMS AS CBL-B INHIBITORS” (Genentech, Inc., priority 2021, published 2025):
Counter-ions that a name gives are not always drawn.

Columns and labels:
Cbl-b = Cbl-b (Homo sapiens (Human), UniProt Q13191); assay: Cbl-b LCK Ub TR-FRET assay (Cbl-b Lck HTRF); assay type: biochemical
How it was run: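 TR-FRET (340 nm excitation, 615/665 nm emission) read after adding HA-ubiquitin–UBE2D2 thioester, anti-HA-D2 and streptavidin-Eu. Beforehand, compounds incubated 60 min with biotinylated Cbl-b, then 90 min with His-LCK and ATP (1 mM in 2× mix); IC50 from 10 concentrations, DMSO high and no-LCK low controls.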

c-Cbl = c-Cbl (Homo sapiens (Human), UniProt P22681); assay: C-Cbl LCK Ub TR-FRET assay (c-cbl Lck HTRF); assay type: biochemical; settings: for (fold-selectivity): C-cbl Lck HTRF IC50 relative to Cbl-b Lck HTRF IC50
How it was run: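 Signal is read once the detection mix has stood 20 min at ambient temperature. Curves are anchored by DMSO as maximum and by omission of LCK as minimum.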

Chain of c-Cbl (P22681 47-435): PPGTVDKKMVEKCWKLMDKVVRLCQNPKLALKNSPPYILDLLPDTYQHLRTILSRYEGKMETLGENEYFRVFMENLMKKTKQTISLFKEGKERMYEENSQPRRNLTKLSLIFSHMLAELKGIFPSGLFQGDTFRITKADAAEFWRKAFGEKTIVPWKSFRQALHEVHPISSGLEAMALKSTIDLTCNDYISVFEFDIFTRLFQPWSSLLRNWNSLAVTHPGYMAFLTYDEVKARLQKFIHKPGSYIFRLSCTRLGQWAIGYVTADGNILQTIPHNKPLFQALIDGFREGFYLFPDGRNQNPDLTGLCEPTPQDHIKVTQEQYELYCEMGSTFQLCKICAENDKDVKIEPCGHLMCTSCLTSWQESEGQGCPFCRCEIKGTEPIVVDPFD
Chain of Cbl-b (Q13191 40-426): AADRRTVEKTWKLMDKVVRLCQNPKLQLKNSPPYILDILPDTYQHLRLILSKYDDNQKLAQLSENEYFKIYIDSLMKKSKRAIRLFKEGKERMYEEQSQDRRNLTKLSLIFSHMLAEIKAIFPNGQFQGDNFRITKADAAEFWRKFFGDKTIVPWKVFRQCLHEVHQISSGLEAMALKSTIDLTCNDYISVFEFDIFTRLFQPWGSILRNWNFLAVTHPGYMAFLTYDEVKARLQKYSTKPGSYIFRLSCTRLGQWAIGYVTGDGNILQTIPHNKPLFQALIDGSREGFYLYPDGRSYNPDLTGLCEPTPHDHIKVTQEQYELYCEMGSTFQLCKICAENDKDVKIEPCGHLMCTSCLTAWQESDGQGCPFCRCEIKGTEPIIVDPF

| Structure (SMILES) | IC50 (Cbl-b) [nM] | IC50 (c-Cbl) [nM] | (fold-selectivity) (c-Cbl) |
| --- | --- | --- | --- |
| CCNc1cc(N2Cc3c(cc(CNC4(C)CCC4)cc3C(F)(F)F)C2=O)cc(C2(Cc3nncn3C)COC2)c1 [Compound 474, 2-(3-(ethylamino)-5-(3-((4-methyl-4H-1,2,4-triazol-3-yl)methyl)oxetan-3-yl)phenyl)-6-(((1-methylcyclobutyl)amino)methyl)-4-(trifluoromethyl)isoindolin-1-one] | 11 | 8.6 | (0.79x) |
| Cn1cnnc1CC1(c2cc(NCCN3CCOCC3)nc(N3Cc4c(cc(CNC5(C)CCC5)cc4C(F)(F)F)C3=O)c2)CCC1 [Compound 340, 2-(4-(1-((4-methyl-4H-1,2,4-triazol-3-yl)methyl)cyclobutyl)-6-((2-morpholinoethyl)amino)pyridin-2-yl)-6-(((1-methylcyclobutyl)amino)methyl)-4-(trifluoromethyl)isoindolin-1-one] | 440 | 320 | (0.74x) |
| Cn1cnnc1[C@@H](F)C1(c2cccc(N3Cc4c(cc(CN5CC(C)(CO)C5)cc4C(F)(F)F)C3=O)c2)CC1 [Compound 125, (S)-2-(3-(1-(fluoro(4-methyl-4H-1,2,4-triazol-3-yl)methyl)cyclopropyl)phenyl)-6((3-(hydroxymethyl)-3-methylazetidin-1-yl)methyl)-4-(trifluoromethyl)isoindolin-1-one] | 140 | 240 | 1.7x |
| Cn1cnnc1CC(F)c1cccc(N2Cc3c(cccc3C(F)(F)F)C2=O)c1 (racemic) [Compound 14, 2-[3-[1-fluoro-2-(4-methyl-4H-1,2,4-triazol-3-yl)ethyl]phenyl]-4-(trifluoromethyl)isoindolin-1-one] | 10000 | 20000 | 2.0x |
| CN1CCN(Cc2cc3c(c(C(F)(F)F)c2)CN(c2cccc(C4(Cc5nncn5C)CC(F)(F)C4)c2)C3=O)C(C(F)(F)F)C1 (centres unmarked) [Compound 374, 2-(3-(3,3-difluoro-1-((4-methyl-4H-1,2,4-triazol-3-yl)methyl)cyclobutyl)phenyl)-6-((4-methyl-2-(trifluoromethyl)piperazin-1-yl)methyl)-4-(trifluoromethyl)isoindolin-1-one] | 100 | 99 | (1.0x) |
| CC1(NCc2cc3c(c(C(F)(F)F)c2)CN(c2cccc(C4(Cc5nncn5C5CC5)CC(F)(F)C4)c2)C3=O)CCC1 [Compound 492, 2-(3-(1-((4-cyclopropyl-4H-1,2,4-triazol-3-yl)methyl)-3,3-difluorocyclobutyl)phenyl)-6-(((1-methylcyclobutyl)amino)methyl)-4-(trifluoromethyl)isoindolin-1-one] | 57 | 60 | (1.0x) |
| CC(C)Oc1cccc2c1CN(c1cccc(C3([C@@H](F)c4nncn4C)COC3)c1)C2=O [Compound 207, (R)-2-(3-(3-(fluoro(4-methyl-4H-1,2,4-triazol-3-yl)methyl)oxetan-3-yl)phenyl)-4-isopropoxyisoindolin-1-one] | 4500 | 13000 | 2.8x |
| CO[C@H]1CCCN(Cc2cc3c(c(C(F)(F)F)c2)CN(c2cccc(C4(Cc5nncn5C)CC(F)(F)C4)c2)C3=O)C1 [Compound 443, (S)-2-(3-(3,3-difluoro-1-((4-methyl-4H-1,2,4-triazol-3-yl)methyl)cyclobutyl)phenyl)-6-((3-methoxypiperidin-1-yl)methyl)-4-(trifluoromethyl)isoindolin-1-one] | 59 | 180 | (2.8x) |
| CC[C@H](C)Nc1cc(C2(Cc3nncn3C)COC2)cc(N2Cc3c(cccc3C(F)(F)F)C2=O)n1 [Compound 481, (S)-2-(6-(sec-butylamino)-4-(3-((4-methyl-4H-1,2,4-triazol-3-yl)methyl)oxetan-3-yl)pyridin-2-yl)-4-(trifluoromethyl)isoindolin-1-one] | 110 | 420 | (3.7x) |
| Cn1cnnc1[C@H](F)C1(c2cccc(N3Cc4c(cc(CN5CC(S(C)(=O)=O)C5)cc4C(F)(F)F)C3=O)c2)COC1 [Compound 163, (R)-2-(3-(3-(fluoro(4-methyl-4H-1,2,4-triazol-3-yl)methyl)oxetan-3-yl)phenyl)-6-((3-(methylsulfonyl)azetidin-1-yl)methyl)-4-(trifluoromethyl)isoindolin-1-one] | 130 | 240 | 1.9x |
| Cn1cnnc1[C@H](F)C1(c2cccc(N3Cc4c(cc(CNC5CCC5)cc4C(F)(F)F)C3=O)c2)COC1 [Compound 227, (R)-6-((Cyclobutylamino)methyl)-2-(3-(3-(fluoro(4-methyl-4H-1,2,4-triazol-3-yl)methyl)oxetan-3-yl)phenyl)-4-(trifluoromethyl)isoindolin-1-one formate] | 16 | 13 |  |
| CC(C)Nc1cc(N2Cc3c(cc(CN4CCN(C)C[C@@H]4C(C)C)cc3C(F)(F)F)C2=O)cc(C2(Cc3nncn3C)CCC2)c1 [Compound 408, (S)-6-((2-isopropyl-4-methylpiperazin-1-yl)methyl)-2-(3-(isopropylamino)-5-(1-((4-methyl-4H-1,2,4-triazol-3-yl)methyl)cyclobutyl)phenyl)-4-(trifluoromethyl)isoindolin-1-one] | 13 | 9.1 | (0.68x) |
| COC[C@@H]1CCCN1Cc1cc2c(c(C(F)(F)F)c1)CN(c1cccc(C3([C@H](F)c4nncn4C)COC3)c1)C2=O [Compound 160, 2-(3-(3-((S)-fluoro(4-methyl-4H-1,2,4-triazol-3-yl)methyl)oxetan-3-yl)phenyl)-6-(((S)-2-(methoxymethyl)pyrrolidin-1-yl)methyl)-4-(trifluoromethyl)isoindolin-1-one] | 1400 | 2300 | 1.7x |
| CC(C)N(C)Cc1cc2c(c(C(F)(F)F)c1)CN(c1cccc(C3([C@@H](F)c4nncn4C)CC(F)(F)C3)c1)C2=O [Compound 419, (R)-2-(3-(3,3-difluoro-1-(fluoro(4-methyl-4H-1,2,4-triazol-3-yl)methyl)cyclobutyl)phenyl)-6-((isopropyl(methyl)amino)methyl)-4-(trifluoromethyl)isoindolin-1-one] | 360 | 420 | (1.2x) |
| Cn1cnnc1[C@@H](F)C1(c2cccc(N3Cc4c(cc(CNCC5CC5)cc4C(F)(F)F)C3=O)c2)CC(F)(F)C1 [Compound 450, (S)-6-(((cyclopropylmethyl)amino)methyl)-2-(3-(3,3-difluoro-1-(fluoro(4-methyl-4H-1,2,4-triazol-3-yl)methyl)cyclobutyl)phenyl)-4-(trifluoromethyl)isoindolin-1-one] | 15 | 14 | (0.95x) |
| CC(C)[C@H]1CNCCN1Cc1cc2c(c(C(F)(F)F)c1)CN(c1cccc(C3([C@@H](F)c4nncn4C)CCC3)c1)C2=O [Compound 216, 2-(3-(1-((R)-fluoro(4-methyl-4H-1,2,4-triazol-3-yl)methyl)cyclobutyl)phenyl)-6-(((S)-2-isopropylpiperazin-1-yl)methyl)-4-(trifluoromethyl)isoindolin-1-one] | 8 | 4.8 | 0.60x |
| CCNc1cc(N2Cc3c(cc(CNC4(C)CCC4)cc3C(F)(F)F)C2=O)cc(C2(Cc3nncn3C)CCC2)c1 [Compound 463, 2-(3-(ethylamino)-5-(1-((4-methyl-4H-1,2,4-triazol-3-yl)methyl)cyclobutyl)phenyl)-6-(((1-methylcyclobutyl)amino)methyl)-4-(trifluoromethyl)isoindolin-1-one] | 6 | 3.5 | (0.55x) |
| COCC1(O)CN(Cc2cc3c(c(C(F)(F)F)c2)CN(c2cccc(C4([C@@H](F)c5nncn5C)COC4)c2)C3=O)C1 [Compound 185, (R)-2-(3-(3-(fluoro(4-methyl-4H-1,2,4-triazol-3-yl)methyl)oxetan-3-yl)phenyl)-6-((3-hydroxy-3-(methoxymethyl)azetidin-1-yl)methyl)-4-(trifluoromethyl)isoindolin-1-one] | 72 | 110 | 1.5x |
| CC(C)Nc1cc(C2(Cc3nncn3C)CCC2)cc(N2Cc3c(cc(CN4CCN(C)C[C@@H]4C(C)C)cc3C(F)(F)F)C2=O)n1 [Compound 409, (S)-6-((2-isopropyl-4-methylpiperazin-1-yl)methyl)-2-(6-(isopropylamino)-4-(1-((4-methyl-4H-1,2,4-triazol-3-yl)methyl)cyclobutyl)pyridin-2-yl)-4-(trifluoromethyl)isoindolin-1-one] | 12 | 5.9 | (0.48x) |
| CCN1CCN(Cc2cc3c(c(C(F)(F)F)c2)CN(c2cccc(C4([C@H](F)c5nncn5C)CC(F)(F)C4)c2)C3=O)[C@@H](C(C)C)C1 [Compound 461, 2-(3-(3,3-difluoro-1-((S)-fluoro(4-methyl-4H-1,2,4-triazol-3-yl)methyl)cyclobutyl)phenyl)-6-(((S)-4-ethyl-2-isopropylpiperazin-1-yl)methyl)-4-(trifluoromethyl)isoindolin-1-one] | 9.9 | 8.2 | (0.82x) |
| CC(C)[C@H]1CN(C)CCN1Cc1cc2c(c(C(F)(F)F)c1)CN(c1cc(C3([C@H](F)c4nncn4C)CCC3)cc(NCCO)n1)C2=O [Compound 234, 2-(4-(1-((S)-fluoro(4-methyl-4H-1,2,4-triazol-3-yl)methyl)cyclobutyl)-6-((2-hydroxyethyl)amino)pyridin-2-yl)-6-(((S)-2-isopropyl-4-methylpiperazin-1-yl)methyl)-4-(trifluoromethyl)isoindolin-1-one] | 7.2 | 8.5 | (1.2x) |
